In patent US20240109972A1, “ANTIBODY AND TAXANE COMBINATION THERAPY” (Genmab A/S, priority 2020, published 2024):

Experiments:
[1] = test system: MC38 mouse colon cancer cells; type: in vivo; settings: mbsIgG2a-PD-L1×4-1BB 0.5 mg/kg 2QW×3, docetaxel 10 mg/kg QW×3; FIG. 7A
Description: MC38 mouse colon cancer cells were cultured in Dulbecco's Modified Eagle Medium supplemented with 10% heat-inactivated fetal bovine serum at 37° C., 5% CO2. MC38 cells were harvested from a cell culture growing in log-phase and quantified.
MC38 cells (1×10^6 tumor cells in 100 μL PBS) were injected subcutaneously in the right lower flank of female C57BL/6 mice (obtained from Vital River Laboratories Research Models and Services; age 6-8 weeks at start of experiment).
Tumor growth was evaluated three times per week using a caliper. Tumor volumes (mm^3) were calculated from caliper measurements as ([length]×[width]^2)/2, where the length is the longest tumor dimension, and the width is the longest tumor dimension perpendicular to the length.
Mice were randomized into groups (n=10/group) with an average tumor volume of 64 mm^3 prior to treatment. […]
The mice were monitored daily for clinical signs of illness. […]

[2] = GEN1046 in combination with docetaxel in metastatic NSCLC subjects, adverse effects; type: in vivo, human
Description: Docetaxel was administered at a dose of 55 mg/m^2 or 75 mg/m^2 depending on the number of prior Dose Limiting Toxicities observed. The maximum tested dose of docetaxel was be 75 mg/m^2.
Subjects with a histological or cytological diagnosis of non-squamous NSCLC must not have an EGFR-sensitizing mutation and/or ALK translocation/ROS1 rearrangement. EGFR sensitizing mutations are those mutations that are amenable to treatment with an approved TKI. Documentation of EGFR and ALK status should be available per local assessment.

cervical cancer = settings: first-line, combined with paclitaxel and platinum (cisplatin or carboplatin) or paclitaxel and topotecan; cited from earlier work

CC(=O)O[C@@]12CO[C@@H]1C[C@H](O)[C@@]1(C)C(=O)[C@H](O)C3=C(C)[C@@H](OC(=O)[C@H](O)[C@@H](NC(=O)OC(C)(C)C)c4ccccc4)C[C@@](O)([C@@H](OC(=O)c4ccccc4)[C@H]21)C3(C)C [Docetaxel, reference compound]
Tumor outgrowth [1]: comparable to the PBS-treated group | Anemia Grade 1, Docetaxel-related ([2]; 55 mg/m^2 Docetaxel + GEN1046): 1 | Anemia Grade 2, Docetaxel-related ([2]; 55 mg/m^2 Docetaxel + GEN1046): 2 | Anemia Grade 3, Docetaxel-related ([2]; 55 mg/m^2 Docetaxel + GEN1046): 2 | Anemia Grade 4, Docetaxel-related ([2]; 55 mg/m^2 Docetaxel + GEN1046): 0 | Anemia Grade 5, Docetaxel-related ([2]; 55 mg/m^2 Docetaxel + GEN1046): 0 | Blood alkaline phosphatase increase Grade 1, Docetaxel-related ([2]; 55 mg/m^2 Docetaxel + GEN1046): 0 | Blood alkaline phosphatase increase Grade 2, Docetaxel-related ([2]; 55 mg/m^2 Docetaxel + GEN1046): 1 | Blood alkaline phosphatase increase Grade 3, Docetaxel-related ([2]; 55 mg/m^2 Docetaxel + GEN1046): 1 | Blood alkaline phosphatase increase Grade 4, Docetaxel-related ([2]; 55 mg/m^2 Docetaxel + GEN1046): 0 | Blood alkaline phosphatase increase Grade 5, Docetaxel-related ([2]; 55 mg/m^2 Docetaxel + GEN1046): 0 | Dysgeusia Grade 1, Docetaxel-related ([2]; 55 mg/m^2 Docetaxel + GEN1046): 0 | Dysgeusia Grade 2, Docetaxel-related ([2]; 55 mg/m^2 Docetaxel + GEN1046): 1 | Dysgeusia Grade 3, Docetaxel-related ([2]; 55 mg/m^2 Docetaxel + GEN1046): 0 | Dysgeusia Grade 4, Docetaxel-related ([2]; 55 mg/m^2 Docetaxel + GEN1046): 0 | Dysgeusia Grade 5, Docetaxel-related ([2]; 55 mg/m^2 Docetaxel + GEN1046): 0 | Fatigue Grade 1, Docetaxel-related ([2]; 55 mg/m^2 Docetaxel + GEN1046): 0 | Fatigue Grade 2, Docetaxel-related ([2]; 55 mg/m^2 Docetaxel + GEN1046): 2 | Fatigue Grade 3, Docetaxel-related ([2]; 55 mg/m^2 Docetaxel + GEN1046): 1 | Fatigue Grade 4, Docetaxel-related ([2]; 55 mg/m^2 Docetaxel + GEN1046): 0 | Fatigue Grade 5, Docetaxel-related ([2]; 55 mg/m^2 Docetaxel + GEN1046): 0 | Febrile neutropenia Grade 1, Docetaxel-related ([2]; 55 mg/m^2 Docetaxel + GEN1046): 0 | Febrile neutropenia Grade 2, Docetaxel-related ([2]; 55 mg/m^2 Docetaxel + GEN1046): 0 | Febrile neutropenia Grade 3, Docetaxel-related ([2]; 55 mg/m^2 Docetaxel + GEN1046): 1 | Febrile neutropenia Grade 4, Docetaxel-related ([2]; 55 mg/m^2 Docetaxel + GEN1046): 0 | Febrile neutropenia Grade 5, Docetaxel-related ([2]; 55 mg/m^2 Docetaxel + GEN1046): 0 | Hypokalemia Grade 1, Docetaxel-related ([2]; 55 mg/m^2 Docetaxel + GEN1046): 0 | Hypokalemia Grade 2, Docetaxel-related ([2]; 55 mg/m^2 Docetaxel + GEN1046): 1 | Hypokalemia Grade 3, Docetaxel-related ([2]; 55 mg/m^2 Docetaxel + GEN1046): 0 | Hypokalemia Grade 4, Docetaxel-related ([2]; 55 mg/m^2 Docetaxel + GEN1046): 0 | Hypokalemia Grade 5, Docetaxel-related ([2]; 55 mg/m^2 Docetaxel + GEN1046): 0 | Hypomagnesaemia Grade 1, Docetaxel-related ([2]; 55 mg/m^2 Docetaxel + GEN1046): 1 | Hypomagnesaemia Grade 2, Docetaxel-related ([2]; 55 mg/m^2 Docetaxel + GEN1046): 0 | Hypomagnesaemia Grade 3, Docetaxel-related ([2]; 55 mg/m^2 Docetaxel + GEN1046): 0 | Hypomagnesaemia Grade 4, Docetaxel-related ([2]; 55 mg/m^2 Docetaxel + GEN1046): 0 | Hypomagnesaemia Grade 5, Docetaxel-related ([2]; 55 mg/m^2 Docetaxel + GEN1046): 0 | Hyponatremia Grade 1, Docetaxel-related ([2]; 55 mg/m^2 Docetaxel + GEN1046): 1 | Hyponatremia Grade 2, Docetaxel-related ([2]; 55 mg/m^2 Docetaxel + GEN1046): 0 | Hyponatremia Grade 3, Docetaxel-related ([2]; 55 mg/m^2 Docetaxel + GEN1046): 0 | Hyponatremia Grade 4, Docetaxel-related ([2]; 55 mg/m^2 Docetaxel + GEN1046): 0 | Hyponatremia Grade 5, Docetaxel-related ([2]; 55 mg/m^2 Docetaxel + GEN1046): 0 | Infusion site extravasation Grade 1, Docetaxel-related ([2]; 55 mg/m^2 Docetaxel + GEN1046): 1 | Infusion site extravasation Grade 2, Docetaxel-related ([2]; 55 mg/m^2 Docetaxel + GEN1046): 0 | Infusion site extravasation Grade 3, Docetaxel-related ([2]; 55 mg/m^2 Docetaxel + GEN1046): 0 | Infusion site extravasation Grade 4, Docetaxel-related ([2]; 55 mg/m^2 Docetaxel + GEN1046): 0 | Infusion site extravasation Grade 5, Docetaxel-related ([2]; 55 mg/m^2 Docetaxel + GEN1046): 0 | Nausea Grade 1, Docetaxel-related ([2]; 55 mg/m^2 Docetaxel + GEN1046): 1 | Nausea Grade 2, Docetaxel-related ([2]; 55 mg/m^2 Docetaxel + GEN1046): 0 | Nausea Grade 3, Docetaxel-related ([2]; 55 mg/m^2 Docetaxel + GEN1046): 0 | Nausea Grade 4, Docetaxel-related ([2]; 55 mg/m^2 Docetaxel + GEN1046): 0 | Nausea Grade 5, Docetaxel-related ([2]; 55 mg/m^2 Docetaxel + GEN1046): 0 | Neutrophil count decreased Grade 1, Docetaxel-related ([2]; 55 mg/m^2 Docetaxel + GEN1046): 0 | Neutrophil count decreased Grade 2, Docetaxel-related ([2]; 55 mg/m^2 Docetaxel + GEN1046): 0 | Neutrophil count decreased Grade 3, Docetaxel-related ([2]; 55 mg/m^2 Docetaxel + GEN1046): 0 | Neutrophil count decreased Grade 4, Docetaxel-related ([2]; 55 mg/m^2 Docetaxel + GEN1046): 1 | Neutrophil count decreased Grade 5, Docetaxel-related ([2]; 55 mg/m^2 Docetaxel + GEN1046): 0 | Pyrexia Grade 1, Docetaxel-related ([2]; 55 mg/m^2 Docetaxel + GEN1046): 1 | Pyrexia Grade 2, Docetaxel-related ([2]; 55 mg/m^2 Docetaxel + GEN1046): 1 | Pyrexia Grade 3, Docetaxel-related ([2]; 55 mg/m^2 Docetaxel + GEN1046): 0 | Pyrexia Grade 4, Docetaxel-related ([2]; 55 mg/m^2 Docetaxel + GEN1046): 0 | Pyrexia Grade 5, Docetaxel-related ([2]; 55 mg/m^2 Docetaxel + GEN1046): 0 | Vomiting Grade 1, Docetaxel-related ([2]; 55 mg/m^2 Docetaxel + GEN1046): 0 | Vomiting Grade 2, Docetaxel-related ([2]; 55 mg/m^2 Docetaxel + GEN1046): 2 | Vomiting Grade 3, Docetaxel-related ([2]; 55 mg/m^2 Docetaxel + GEN1046): 0 | Vomiting Grade 4, Docetaxel-related ([2]; 55 mg/m^2 Docetaxel + GEN1046): 0 | Vomiting Grade 5, Docetaxel-related ([2]; 55 mg/m^2 Docetaxel + GEN1046): 0 | White blood cell count decreased Grade 1, Docetaxel-related ([2]; 55 mg/m^2 Docetaxel + GEN1046): 0 | White blood cell count decreased Grade 2, Docetaxel-related ([2]; 55 mg/m^2 Docetaxel + GEN1046): 0 | White blood cell count decreased Grade 3, Docetaxel-related ([2]; 55 mg/m^2 Docetaxel + GEN1046): 0 | White blood cell count decreased Grade 4, Docetaxel-related ([2]; 55 mg/m^2 Docetaxel + GEN1046): 1 | White blood cell count decreased Grade 5, Docetaxel-related ([2]; 55 mg/m^2 Docetaxel + GEN1046): 0 | Anaemia Grade 1, Docetaxel-related ([2]; 75 mg/m^2 Docetaxel + GEN1046): 0 | Anaemia Grade 2, Docetaxel-related ([2]; 75 mg/m^2 Docetaxel + GEN1046): 0 | Anaemia Grade 3, Docetaxel-related ([2]; 75 mg/m^2 Docetaxel + GEN1046): 1 | Anaemia Grade 4, Docetaxel-related ([2]; 75 mg/m^2 Docetaxel + GEN1046): 0 | Anaemia Grade 5, Docetaxel-related ([2]; 75 mg/m^2 Docetaxel + GEN1046): 0 | Diarrhea Grade 1, Docetaxel-related ([2]; 75 mg/m^2 Docetaxel + GEN1046): 1 | Diarrhea Grade 2, Docetaxel-related ([2]; 75 mg/m^2 Docetaxel + GEN1046): 0 | Diarrhea Grade 3, Docetaxel-related ([2]; 75 mg/m^2 Docetaxel + GEN1046): 0 | Diarrhea Grade 4, Docetaxel-related ([2]; 75 mg/m^2 Docetaxel + GEN1046): 0 | Diarrhea Grade 5, Docetaxel-related ([2]; 75 mg/m^2 Docetaxel + GEN1046): 0 | Dyspnea Grade 1, Docetaxel-related ([2]; 75 mg/m^2 Docetaxel + GEN1046): 0 | Dyspnea Grade 2, Docetaxel-related ([2]; 75 mg/m^2 Docetaxel + GEN1046): 0 | Dyspnea Grade 3, Docetaxel-related ([2]; 75 mg/m^2 Docetaxel + GEN1046): 0 | Dyspnea Grade 4, Docetaxel-related ([2]; 75 mg/m^2 Docetaxel + GEN1046): 1 | Dyspnea Grade 5, Docetaxel-related ([2]; 75 mg/m^2 Docetaxel + GEN1046): 0 | Fatigue Grade 1, Docetaxel-related ([2]; 75 mg/m^2 Docetaxel + GEN1046): 1 | Fatigue Grade 2, Docetaxel-related ([2]; 75 mg/m^2 Docetaxel + GEN1046): 2 | Fatigue Grade 3, Docetaxel-related ([2]; 75 mg/m^2 Docetaxel + GEN1046): 0 | Fatigue Grade 4, Docetaxel-related ([2]; 75 mg/m^2 Docetaxel + GEN1046): 0 | Fatigue Grade 5, Docetaxel-related ([2]; 75 mg/m^2 Docetaxel + GEN1046): 0 | Gastrooesophageal reflux disease Grade 1, Docetaxel-related ([2]; 75 mg/m^2 Docetaxel + GEN1046): 0 | Gastrooesophageal reflux disease Grade 2, Docetaxel-related ([2]; 75 mg/m^2 Docetaxel + GEN1046): 1 | Gastrooesophageal reflux disease Grade 3, Docetaxel-related ([2]; 75 mg/m^2 Docetaxel + GEN1046): 0 | Gastrooesophageal reflux disease Grade 4, Docetaxel-related ([2]; 75 mg/m^2 Docetaxel + GEN1046): 0 | Gastrooesophageal reflux disease Grade 5, Docetaxel-related ([2]; 75 mg/m^2 Docetaxel + GEN1046): 0 | Hiccups Grade 1, Docetaxel-related ([2]; 75 mg/m^2 Docetaxel + GEN1046): 0 | Hiccups Grade 2, Docetaxel-related ([2]; 75 mg/m^2 Docetaxel + GEN1046): 1 | Hiccups Grade 3, Docetaxel-related ([2]; 75 mg/m^2 Docetaxel + GEN1046): 0 | Hiccups Grade 4, Docetaxel-related ([2]; 75 mg/m^2 Docetaxel + GEN1046): 0 | Hiccups Grade 5, Docetaxel-related ([2]; 75 mg/m^2 Docetaxel + GEN1046): 0 | Lacrimation increased Grade 1, Docetaxel-related ([2]; 75 mg/m^2 Docetaxel + GEN1046): 1 | Lacrimation increased Grade 2, Docetaxel-related ([2]; 75 mg/m^2 Docetaxel + GEN1046): 0 | Lacrimation increased Grade 3, Docetaxel-related ([2]; 75 mg/m^2 Docetaxel + GEN1046): 0 | Lacrimation increased Grade 4, Docetaxel-related ([2]; 75 mg/m^2 Docetaxel + GEN1046): 0 | Lacrimation increased Grade 5, Docetaxel-related ([2]; 75 mg/m^2 Docetaxel + GEN1046): 0 | Nausea Grade 1, Docetaxel-related ([2]; 75 mg/m^2 Docetaxel + GEN1046): 1 | Nausea Grade 2, Docetaxel-related ([2]; 75 mg/m^2 Docetaxel + GEN1046): 2 | Nausea Grade 3, Docetaxel-related ([2]; 75 mg/m^2 Docetaxel + GEN1046): 0 | Nausea Grade 4, Docetaxel-related ([2]; 75 mg/m^2 Docetaxel + GEN1046): 0 | Nausea Grade 5, Docetaxel-related ([2]; 75 mg/m^2 Docetaxel + GEN1046): 0 | Neutrophil count decreased Grade 1, Docetaxel-related ([2]; 75 mg/m^2 Docetaxel + GEN1046): 0 | Neutrophil count decreased Grade 2, Docetaxel-related ([2]; 75 mg/m^2 Docetaxel + GEN1046): 0 | Neutrophil count decreased Grade 3, Docetaxel-related ([2]; 75 mg/m^2 Docetaxel + GEN1046): 1 | Neutrophil count decreased Grade 4, Docetaxel-related ([2]; 75 mg/m^2 Docetaxel + GEN1046): 1 | Neutrophil count decreased Grade 5, Docetaxel-related ([2]; 75 mg/m^2 Docetaxel + GEN1046): 0 | Not coded: periphery sensory neuropathy Grade 1, Docetaxel-related ([2]; 75 mg/m^2 Docetaxel + GEN1046): 1 | Not coded: periphery sensory neuropathy Grade 2, Docetaxel-related ([2]; 75 mg/m^2 Docetaxel + GEN1046): 0 | Not coded: periphery sensory neuropathy Grade 3, Docetaxel-related ([2]; 75 mg/m^2 Docetaxel + GEN1046): 0 | Not coded: periphery sensory neuropathy Grade 4, Docetaxel-related ([2]; 75 mg/m^2 Docetaxel + GEN1046): 0 | Not coded: periphery sensory neuropathy Grade 5, Docetaxel-related ([2]; 75 mg/m^2 Docetaxel + GEN1046): 0 | Vomiting Grade 1, Docetaxel-related ([2]; 75 mg/m^2 Docetaxel + GEN1046): 1 | Vomiting Grade 2, Docetaxel-related ([2]; 75 mg/m^2 Docetaxel + GEN1046): 0 | Vomiting Grade 3, Docetaxel-related ([2]; 75 mg/m^2 Docetaxel + GEN1046): 0 | Vomiting Grade 4, Docetaxel-related ([2]; 75 mg/m^2 Docetaxel + GEN1046): 0 | Vomiting Grade 5, Docetaxel-related ([2]; 75 mg/m^2 Docetaxel + GEN1046): 0 | Hepatotoxicity ([2]; GEN1046 in combination with Docetaxel): No reported drug-related hepatoxicities

bevacizumab
Median OS (cervical cancer): approximately 18 months | ORR (cervical cancer): 48%
